{"source": "patent US20230037453A1", "about": "“PREPARATION FOR USE AS VASORELAXANT” (Evonik Operations GmbH, priority 2020, published 2023)", "test_system": "mice mesenteric arteries", "assay": "Vascular reactivity: vasorelaxation of phenylephrine-precontracted mesenteric arteries (wire or pressure myograph)", "format": "cell-based", "conditions": "for direct vascular action: dose-dependent vasorelaxation compared with Healthberry 865 / vasorelaxation reached: single anthocyanins 1 - 100 µg/mL; for vasorelaxation reached: dose-response curves", "description": "Second-order branches of the mesenteric arterial tree were removed from mice to perform vascular studies. […] First, an analysis of vascular reactivity curves was performed. In particular, vasoconstriction was assessed with 80 mmol/L of KCI or with increasing doses of phenylephrine (from 10^-9 M to 10^-6 M) in control conditions. Endothelium-dependent and -independent relaxations were assessed by measuring the dilatory responses of mesenteric arteries to cumulative concentrations of acetylcholine (from 10^-9 M to 10^-6 M) or nitroglycerine (from 10^-9 M to 10^-6 M) respectively, in vessels precontracted with phenylephrine at the dose necessary to obtain a similar level of precontraction in each ring (80% of initial KCI-evoked contraction). Caution was taken to avoid endothelial damage; functional integrity was reflected by the response to acetylcholine (from 10^-9 M to 10^-6 M). […]\nF) Comparison of vasorelaxant effect of AvailOm®, ω 3-FA, ω 3-EE or L-Lysine. Statistical analyses were performed using two-way ANOVA followed Bonferroni post-hoc test. *p<0.05; **p<0.01, ***p<0.001.", "key": {"[1]": {"conditions": "phenylephrine-precontracted mice mesenteric arteries"}}, "data": [{"compound": "OC[C@H]1O[C@@H](Oc2cc3c(O)cc(O)cc3[o+]c2-c2ccc(O)c(O)c2)[C@H](O)[C@@H](O)[C@H]1O", "note": "[C3-gal, Cyanidin-3-galactoside]", "values": [{"measurement": "direct vascular action: dose-dependent vasorelaxation compared with Healthberry 865", "setting": "[1]", "result": "able to reproduce the direct vasorelaxant effect of Healthberry 865®"}]}, {"compound": "OC[C@H]1O[C@@H](Oc2cc3c(O)cc(O)cc3[o+]c2-c2ccc(O)c(O)c2)[C@H](O)[C@@H](O)[C@@H]1O", "note": "[C3-glu, Cyanidin-3-glucoside]", "values": [{"measurement": "direct vascular action: dose-dependent vasorelaxation compared with Healthberry 865", "setting": "[1]", "result": "none of the single anthocyanins was able to evoke a dose-dependent vasorelaxation comparable to that observed after Healthberry 865® administration"}]}, {"compound": "C[C@@H]1O[C@@H](OC[C@H]2O[C@@H](Oc3cc4c(O)cc(O)cc4[o+]c3-c3ccc(O)c(O)c3)[C@H](O)[C@@H](O)[C@@H]2O)[C@H](O)[C@H](O)[C@H]1O", "note": "[C3-rut, Cyanidin-3-rutinoside]", "values": [{"measurement": "vasorelaxation reached", "result": "~36,5%"}, {"measurement": "direct vascular action: dose-dependent vasorelaxation compared with Healthberry 865", "setting": "[1]", "result": "none of the single anthocyanins was able to evoke a dose-dependent vasorelaxation comparable to that observed after Healthberry 865® administration"}]}, {"compound": "Oc1cc(O)c2cc(O[C@H]3OC[C@H](O)[C@H](O)[C@H]3O)c(-c3cc(O)c(O)c(O)c3)[o+]c2c1", "note": "[DP3-ara, Delphinidin-3-arabinoside]", "values": [{"measurement": "direct vascular action: dose-dependent vasorelaxation compared with Healthberry 865", "setting": "[1]", "result": "none of the single anthocyanins was able to evoke a dose-dependent vasorelaxation comparable to that observed after Healthberry 865® administration"}]}, {"compound": "OC[C@H]1O[C@@H](Oc2cc3c(O)cc(O)cc3[o+]c2-c2cc(O)c(O)c(O)c2)[C@H](O)[C@@H](O)[C@H]1O", "note": "[DP3-gal, Delphinidin-3-galactoside]", "values": [{"measurement": "vasorelaxation reached", "result": "about 32,5%"}, {"measurement": "direct vascular action: dose-dependent vasorelaxation compared with Healthberry 865", "setting": "[1]", "result": "none of the single anthocyanins was able to evoke a dose-dependent vasorelaxation comparable to that observed after Healthberry 865® administration"}]}, {"compound": "OC[C@H]1O[C@@H](Oc2cc3c(O)cc(O)cc3[o+]c2-c2cc(O)c(O)c(O)c2)[C@H](O)[C@@H](O)[C@@H]1O", "note": "[DP3-glu, Delphinidin-3-glucoside]", "values": [{"measurement": "direct vascular action: dose-dependent vasorelaxation compared with Healthberry 865", "setting": "[1]", "result": "none of the single anthocyanins was able to evoke a dose-dependent vasorelaxation comparable to that observed after Healthberry 865® administration"}]}, {"compound": "NCCCC[C@H](N)C(=O)O", "note": "[L-Lysine]", "values": [{"measurement": "direct vasorelaxant action (dose-response)", "setting": "phenylephrine-precontracted mice mesenteric arteries, increasing doses 5 - 300 µg/mL", "result": "did not evoke any vasorelaxant effect"}]}, {"compound": "COc1cc(-c2[o+]c3cc(O)cc(O)c3cc2O[C@@H]2O[C@H](CO)[C@H](O)[C@H](O)[C@H]2O)cc(OC)c1O", "note": "[MAL3-gal, Malvidin-3-galactoside]", "values": [{"measurement": "direct vascular action: dose-dependent vasorelaxation compared with Healthberry 865", "setting": "[1]", "result": "none of the single anthocyanins was able to evoke a dose-dependent vasorelaxation comparable to that observed after Healthberry 865® administration"}]}, {"compound": "COc1cc(-c2[o+]c3cc(O)cc(O)c3cc2O[C@@H]2O[C@H](CO)[C@@H](O)[C@H](O)[C@H]2O)cc(OC)c1O", "note": "[MAL3-glu, Malvidin-3-glucoside]", "values": [{"measurement": "direct vascular action: dose-dependent vasorelaxation compared with Healthberry 865", "setting": "[1]", "result": "none of the single anthocyanins was able to evoke a dose-dependent vasorelaxation comparable to that observed after Healthberry 865® administration"}]}, {"compound": "COc1cc(-c2[o+]c3cc(O)cc(O)c3cc2O[C@@H]2O[C@H](CO)[C@@H](O)[C@H](O)[C@H]2O)cc(O)c1O", "note": "[PT3-glu, Petunidin-3-glucoside]", "values": [{"measurement": "direct vascular action: dose-dependent vasorelaxation compared with Healthberry 865", "setting": "[1]", "result": "none of the single anthocyanins was able to evoke a dose-dependent vasorelaxation comparable to that observed after Healthberry 865® administration"}]}, {"compound": "Peonidin-3-galactoside [PEO3-gal]", "values": [{"measurement": "direct vascular action: dose-dependent vasorelaxation compared with Healthberry 865", "setting": "[1]", "result": "none of the single anthocyanins was able to evoke a dose-dependent vasorelaxation comparable to that observed after Healthberry 865® administration"}]}]}
